Counter-ions that a name gives are not always drawn.
Tests used:
[1] = target: CRBN/DDB1 (Homo sapiens (Human), UniProt Q96SW2); test: HTRF binding assay to CRBN/DDB1; conditions: read-out: CRBN HTRF IC50
Method: The binding potency was determined using HTRF assay technology (Perkin Elmer). Compounds were serially diluted in DMSO and 0.2 μL volume was transferred to white 384-well plate.

[2] = target: T1, ER (Homo sapiens (Human), UniProt P03372); test: In-cell western (ICW) ER degradation assay in T47D cells; type: cell-based; conditions: 16 hrs; for DC50: ER degradation; for Dmax / T47D Dmax %: maximal ER degradation
Method: ERa degradative activity of compounds can be assessed in MCF-7 and T47D Cells. MCF-7 and T47D cell are seeded and are subsequently treated with the compounds at certain concentrations (e.g., 0.02 to 300 nM). DMSO can be used as vehicle control. Cells are fixed and are blocked with Intercept (PBS) Blocking Buffer (e.g., Li-COR, Odyssey Blocking Buffer), and are stained with ER (e.g., 1:500, Cell signaling) primary antibody for overnight at cold room. Secondary Antibody (e.g., IRDye 800CW Goat anti-Rabbit IgG) and CellTag 700 Stain are added in Intercept (PBS) Blocking Buffer. Finally, cell plate is placed in incubator to dry. Image and signal are captured on Odyssey® DLx Imaging System.
Day 3: After 16 hrs of compounds treatment, cells were fixed by 4% PFA and permeabilized with elution buffer (0.1% Triton X-100 in 1% PBS Solution). Subsequently, cells were blocked with Intercept (PBS) Blocking Buffer (Li-COR, Odyssey Blocking Buffer), and were stained with ER (1:500, Cell signaling) primary antibody for overnight at cold room.
Day 4: Remove the buffer, add IRDye 800CW Goat anti-Rabbit IgG Secondary Antibody (1:2000) and CellTag 700 Stain (1:500) in Intercept (PBS) Blocking Buffer. Finally, cell plate is placed in incubator to dry. Image and signal were captured on Odyssey® DLx Imaging System.

[3] = target: T1, ER; test: In-cell western (ICW) ER degradation assay in MCF-7 cells; type: cell-based; conditions: MCF7, 16 hrs; for DC50: ER degradation; for Dmax: MCF7, maximal ER degradation; for MCF7 Dmax %: maximal ER degradation

T1 sequence (P03372 whole entry): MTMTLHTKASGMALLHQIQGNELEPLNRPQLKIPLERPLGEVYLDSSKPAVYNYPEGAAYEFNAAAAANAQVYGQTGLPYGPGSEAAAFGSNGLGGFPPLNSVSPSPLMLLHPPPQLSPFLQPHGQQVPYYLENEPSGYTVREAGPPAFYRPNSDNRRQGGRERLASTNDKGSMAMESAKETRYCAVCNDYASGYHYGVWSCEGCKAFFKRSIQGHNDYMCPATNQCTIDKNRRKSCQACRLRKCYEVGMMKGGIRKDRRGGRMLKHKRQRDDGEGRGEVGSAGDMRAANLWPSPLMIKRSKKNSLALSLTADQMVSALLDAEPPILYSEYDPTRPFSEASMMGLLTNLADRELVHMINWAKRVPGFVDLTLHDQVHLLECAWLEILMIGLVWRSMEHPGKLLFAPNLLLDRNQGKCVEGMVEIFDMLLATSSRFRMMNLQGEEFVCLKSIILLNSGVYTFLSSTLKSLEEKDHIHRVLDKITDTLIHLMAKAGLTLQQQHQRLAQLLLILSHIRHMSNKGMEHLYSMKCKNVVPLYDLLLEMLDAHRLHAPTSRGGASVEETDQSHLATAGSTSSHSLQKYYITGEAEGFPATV
Sequence of CRBN/DDB1 (Q96SW2 whole entry): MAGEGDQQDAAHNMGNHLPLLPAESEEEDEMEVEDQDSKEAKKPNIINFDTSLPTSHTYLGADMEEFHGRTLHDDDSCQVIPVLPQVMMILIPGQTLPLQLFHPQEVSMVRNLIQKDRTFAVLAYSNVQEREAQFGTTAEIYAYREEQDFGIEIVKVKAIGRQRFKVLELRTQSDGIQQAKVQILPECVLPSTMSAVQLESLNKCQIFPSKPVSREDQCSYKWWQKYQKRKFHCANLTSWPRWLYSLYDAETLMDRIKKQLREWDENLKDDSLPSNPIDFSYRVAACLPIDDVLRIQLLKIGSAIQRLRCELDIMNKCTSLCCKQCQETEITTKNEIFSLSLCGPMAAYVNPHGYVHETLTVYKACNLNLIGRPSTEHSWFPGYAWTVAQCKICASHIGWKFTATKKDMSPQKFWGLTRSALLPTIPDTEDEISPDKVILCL
Sequence of CRBN/DDB1 (Q16531 whole entry partner): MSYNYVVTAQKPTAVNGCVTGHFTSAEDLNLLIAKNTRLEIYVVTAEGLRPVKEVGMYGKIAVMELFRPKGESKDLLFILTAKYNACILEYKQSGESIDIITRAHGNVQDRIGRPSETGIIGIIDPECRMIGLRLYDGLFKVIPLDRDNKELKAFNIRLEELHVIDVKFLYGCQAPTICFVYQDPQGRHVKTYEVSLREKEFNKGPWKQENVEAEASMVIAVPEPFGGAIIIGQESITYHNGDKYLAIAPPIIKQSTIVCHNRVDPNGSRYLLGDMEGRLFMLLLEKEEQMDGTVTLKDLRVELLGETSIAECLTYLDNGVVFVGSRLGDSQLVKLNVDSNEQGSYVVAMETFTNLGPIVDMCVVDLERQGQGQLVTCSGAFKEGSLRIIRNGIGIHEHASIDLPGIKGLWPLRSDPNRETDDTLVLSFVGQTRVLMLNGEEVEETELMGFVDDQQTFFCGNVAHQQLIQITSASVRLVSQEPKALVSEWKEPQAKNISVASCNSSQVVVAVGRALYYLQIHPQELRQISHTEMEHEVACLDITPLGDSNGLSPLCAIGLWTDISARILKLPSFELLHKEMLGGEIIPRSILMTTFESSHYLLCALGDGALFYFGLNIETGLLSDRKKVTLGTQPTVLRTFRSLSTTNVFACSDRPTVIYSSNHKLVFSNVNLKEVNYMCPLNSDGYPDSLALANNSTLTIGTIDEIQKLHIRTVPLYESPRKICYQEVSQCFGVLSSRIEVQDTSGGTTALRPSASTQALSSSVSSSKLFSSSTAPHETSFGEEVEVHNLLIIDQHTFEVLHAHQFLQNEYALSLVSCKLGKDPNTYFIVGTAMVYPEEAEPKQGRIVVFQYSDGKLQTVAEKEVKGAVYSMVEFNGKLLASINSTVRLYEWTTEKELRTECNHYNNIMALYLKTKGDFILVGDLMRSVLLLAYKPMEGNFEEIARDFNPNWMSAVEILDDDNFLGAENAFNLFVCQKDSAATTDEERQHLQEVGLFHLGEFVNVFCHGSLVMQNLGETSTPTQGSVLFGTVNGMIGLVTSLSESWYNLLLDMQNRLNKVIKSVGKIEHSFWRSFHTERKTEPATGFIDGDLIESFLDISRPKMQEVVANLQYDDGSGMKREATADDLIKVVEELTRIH

MCF7 Dmax % [3]	Structure (SMILES)	IC50 [1] [nM]	DC50 [2] [nM]	Dmax [2] [%]	DC50 [3] [nM]	Dmax [3] [%]	T47D Dmax % [2]
	O=C1CC[C@@H](Nc2ccc(C3CCN(CC4CCC5(CC4)CN(c4ccc([C@@H]6c7ccc(O)cc7OC[C@@H]6c6ccccc6)cc4)C5)CC3)cc2)C(=O)N1 (single isomer, unassigned) [Compound A141]	50 to 500	1 to 10	50 to 75	1 to 10	50 to 75	
	COc1cccc([C@H]2COc3cc(O)ccc3[C@H]2c2ccc(N3CCC(CN4CCN5c6ccc7c(c6OC[C@H]5C4)CN(C4CCC(=O)NC4=O)C7=O)CC3)cc2)c1 (single isomer, unassigned) [Compound A33]	< 50	1 to 10		1 to 10		
	COc1cc(N2CCC(CN3CCN4c5cc6c(cc5OC[C@H]4C3)C(=O)N(C3CCC(=O)NC3=O)C6)CC2)ccc1[C@H]1c2ccc(O)cc2OC[C@H]1c1ccccc1 (stereo partly drawn) [Compound A74, 3-((R)-3-((1-(4-((3R,4S)-7-hydroxy-3-phenylchroman-4-yl)-3-methoxyphenyl)piperidin-4-yl)methyl)-8-oxo-1,2,3,4,4a,5,8,10-octahydro-9H-pyrazino[1′,2′:4,5][1,4]oxazino[2,3-f]isoindol-9-yl)piperidine-2,6-dione]	500 to 5000	1 to 10	25 to 50	< 1	< 25	
	O=C1CCC(NC(=O)c2ccc3c(n2)OC[C@H]2CN(CC4CCN(c5ccc([C@@H]6c7ccc(O)cc7OC[C@@H]6c6ccccc6)cc5F)CC4)CCN32)C(=O)N1 (single isomer, unassigned) [Compound A104]	500 to 5000	1 to 10	≥ 75	1 to 10	≥ 75	
	O=C1CCC(Nc2ccc3c(c2)OC[C@H]2CN(CC4CCN(c5ccc([C@@H]6c7ccc(O)cc7OC[C@@H]6c6ccccc6)cc5)CC4)CCN32)C(=O)N1 (single isomer, unassigned) [Compound A91, hydrochloride]	> 5000	1 to 10		1 to 10		
	Cn1c(=O)n(C2CCC(=O)NC2=O)c2ccc(C3CCN(CC4CC5(CCN(c6ccc([C@@H]7c8ccc(O)cc8OC[C@@H]7c7ccccc7)cc6)CC5)C4)CC3)cc21 (single isomer, unassigned) [Compound A73]	< 50	< 1	50 to 75	< 1	50 to 75	
	COc1cc(N2CCC(CN3CCC4(CC3)COc3c4ccc4c3CN(C3CCC(=O)NC3=O)C4=O)CC2)ccc1[C@H]1c2ccc(O)cc2OC[C@H]1c1ccccc1 (stereo partly drawn) [Compound A135, 3-(1′-((1-(4-((3R,4S)-7-hydroxy-3-phenylchroman-4-yl)-3-methoxyphenyl)piperidin-4-yl)methyl)-6-oxo-6,8-dihydro-2H,7H-spiro[furo[2,3-e]isoindole-3,4′-piperidin]-7-yl)piperidine-2,6-dione]	< 50	< 1	25 to 50	< 1	25 to 50	
B (“B”: >50% and <75%)	O=C1CC[C@H](N2Cc3c(ccc4c3OC[C@H]3CN(CC5CC6(CCN(c7ccc([C@@H]8c9ccc(O)cc9OC[C@@H]8c8ccccc8)cc7)CC6)C5)CCN43)C2=O)C(=O)N1 (single isomer, unassigned) [Compound A90]	> 5000	< 1	50 to 75	1 to 10		
	O=C1CC[C@@H](N2Cc3cc4c(cc3C2=O)OC[C@H]2CN(C[C@@H]3COC5(CCN(c6ccc([C@H]7c8ccc(O)cc8OC[C@H]7c7ccccc7)cc6F)CC5)C3)CCN42)C(=O)N1 [Compound A160, (R)-3-((R)-3-(((R)-8-(2-fluoro-4-((3R,4S)-7-hydroxy-3-phenylchroman-4-yl)phenyl)-1-oxa-8-azaspiro[4.5]decan-3-yl)methyl)-8-oxo-1,2,3,4,4a,5,8,10-octahydro-9H-pyrazino[1′,2′:4,5][1,4]oxazino[2,3-f]isoindol-9-yl)piperidine-2,6-dione]	500 to 5000	1 to 10	25 to 50	1 to 10	< 25	
B (“B”: >50% and <75%)	O=C1CC[C@@H](N2Cc3cc4c(cc3C2=O)OC[C@@H]2CN(C[C@H]3COC5(CCN(c6ccc([C@H]7c8ccc(O)cc8OC[C@H]7c7ccccc7)cc6)CC5)C3)CCN42)C(=O)N1 [Compound A152, (R)-3-((S)-3-(((S)-8-(4-((3R,4S)-7-hydroxy-3-phenylchroman-4-yl)phenyl)-1-oxa-8-azaspiro[4.5]decan-3-yl)methyl)-8-oxo-1,2,3,4,4a,5,8,10-octahydro-9H-pyrazino[1′,2′:4,5][1,4]oxazino[2,3-f]isoindol-9-yl)piperidine-2,6-dione]	50 to 500	1 to 10		10 to 100		B (“B”: >50% and <75%)
	COc1cc(N2CCC(CN3CCN4c5ccc6c(c5OC[C@H]4C3)CN(C3CCC(=O)NC3=O)C6=O)CC2)c(F)cc1[C@H]1c2ccc(O)cc2OC[C@H]1c1ccccc1 (stereo partly drawn) [Compound A105, (R)-3-((S)-7-((1-(2-fluoro-4-((3R,4R)-7-hydroxy-3-phenylchroman-4-yl)-5-methoxyphenyl)piperidin-4-yl)methyl)-1-oxo-1,3,5,5a,6,7,8,9-octahydro-2H-pyrazino[1′,2′:4,5][1,4]oxazino[2,3-e]isoindol-2-yl)piperidine-2,7-dione]	< 50	1 to 10	25 to 50	10 to 100	25 to 50	
	COc1cc(N2CCC(CN3CCN(c4ccc(C(=O)NC5CCC(=O)NC5=O)nc4)CC3)CC2)ccc1[C@H]1c2ccc(O)cc2OC[C@H]1c1ccccc1 (single isomer, unassigned) [Compound A124]	> 5000	< 1	50 to 75	< 1	50 to 75	
	O=C1CCC(N2Cc3cc4c(cc3C2=O)OC[C@@H]2CN(CC3CCN(c5ccc([C@@H]6c7ccc(O)cc7OC[C@@H]6c6ccccc6)cn5)CC3)CCN42)C(=O)N1 (single isomer, unassigned) [Compound A70]	50 to 500	1 to 10		> 100		
	O=C1CCC(N2C(=O)c3cc4c(cc3C2=O)CN(C(=O)CN2CC3(CCN(c5ccc([C@H]6c7ccc(O)cc7OC[C@H]6c6ccccc6)cc5)CC3)C2)C4)C(=O)N1 (single isomer, unassigned) [Compound A55, formate]	500 to 5000	> 100	< 25	> 100	< 25	
	O=C1CCC(Nc2ccc(C3CCN(CC4CCN(c5ccc([C@@H]6c7ccc(O)cc7OC[C@@H]6c6ccccc6)cc5)CC4)CC3)c(F)c2)C(=O)N1 (single isomer, unassigned) [Compound A72]	50 to 500	< 1	25 to 50	> 100	< 25	
	COc1cc(C(=O)N[C@@H]2CCC(=O)NC2=O)ncc1N1CCN(CC2CCC3(CC2)CN(c2ccc([C@H]4c5ccc(O)cc5OC[C@H]4c4ccccc4)cc2)C3)CC1 (single isomer, unassigned) [Compound A144]	500 to 5000	> 100	< 25	10 to 100	25 to 50	
	O=C1CCC(NC(=O)c2ccc(N3CCN(CC4CCN(c5ccc([C@H]6c7ccc(O)cc7OC[C@H]6c6ccccc6)cc5F)CC4)CC3)cn2)C(=O)N1 (single isomer, unassigned) [Compound A100]	> 5000	1 to 10	50 to 75	1 to 10	50 to 75	
	O=C1CCN(c2ccc(N3CCC4(CC3)CC(CN3CCN(c5ccc([C@@H]6c7ccc(O)cc7OC[C@@H]6c6ccccc6)cc5)CC3)C4)cc2)C(=O)N1 [Compound A112, 1-(4-(2-((4-(4-((3S,4R)-7-hydroxy-3-phenylchroman-4-yl)phenyl)piperazin-1-yl)methyl)-7-azaspiro[3.5]nonan-7-yl)phenyl)dihydropyrimidine-2,4(1H,3H)-dione]	> 5000	1 to 10	< 25	> 100	< 25	
	O=C1CCC(N2C(=O)c3cc4c(cc3C2=O)CN(C(=O)C2CCN(C3CCN(c5ccc([C@@H]6c7ccc(O)cc7OC[C@@H]6c6ccccc6)cc5)CC3)CC2)C4)C(=O)N1 (single isomer, unassigned) [Compound A79]	500 to 5000	< 1	≥ 75	< 1	≥ 75	

Structure (SMILES)	MCF7 Dmax % [3]	IC50 [1] [nM]	DC50 [2] [nM]	Dmax [2] [%]	DC50 [3] [nM]	Dmax [3] [%]	T47D Dmax % [2]
COc1cc(N2CCC(CN3CCN(c4ccc(C(=O)NC5CCC(=O)NC5=O)nc4)CC3)CC2)c(F)cc1[C@H]1c2ccc(O)cc2OC[C@H]1c1ccccc1 (stereo partly drawn) [Compound A109, N-(2,6-dioxopiperidin-3-yl)-5-(4-((1-(2-fluoro-4-((3R,4R)-7-hydroxy-3-phenylchroman-4-yl)-5-methoxyphenyl)piperidin-4-yl)methyl)piperazin-1-yl)picolinamide]	C (“C”: 25%-50%)	> 5000	1 to 10		10 to 100		C (“C”: 25%-50%)

From patent US20260000676A1, “CHROMAN DERIVATIVES AS ESTROGEN RECEPTOR DEGRADERS” (THE REGENTS OF THE UNIVERSITY OF MICHIGAN, priority 2022, published 2026)
